# Source: patent US7714014B2, “Targeting GLI proteins in human cancer by small molecules” (The Regents of the University of California, priority 2005, dated 2010)
# Entries after “also recorded” stand apart in the source; their conditions may differ.
# Columns and labels:
# CaCO2 (colon cancer) = experiment: Apoptosis analysis (Annexin V FITC, flow cytometry); format: cell-based, human; details: about 3 days
# Protocol: (§1) Apoptosis was analyzed by using an Annexin V FITC Apoptosis Detection Kit (Biosource, Camarillo, Calif.), according to the manufacturer's protocol. After treatment with different small molecule compounds at various concentrations for about 3 days, cells were harvested by trypsinization, stained and immediately analyzed by flow cytometry (FACScan; Decton Dickinson, Franklin Lake, N.J.). Early apoptotic cells with exposed phosphatidylserine but intact cell membranes will bind to Annexin V-FITC, but not propidium iodide (PI). Cells in necrotic or late apoptotic stages will be labeled with both Annexin V-FITC and PI. “% apoptotic cells” or “% apoptosis” refers to the combined early and late apoptotic cells.
# H460 (NSCLC) = experiment: as above; format: cell-based, human; details: 3 days
# Protocol: as §1
# H838 (NSCLC) = experiment: as above; format: cell-based, human; details: 3 days
# Protocol: as §1
# [1] = test system: Primary cultured mesothelioma; experiment: as above; format: cell-based, human; details: 3 days
# Protocol: Fresh cancer tissue and adjacent normal tissue from patients undergoing curative primary resection of their tumors were collected at the time of surgery (IRB approval H8714-15319-040), and immediately snap-frozen in liquid nitrogen. These tissue samples were kept at −170° C. in a liquid nitrogen freezer until further use. Primary tissue cultures were prepared as follows: Fresh cancer tissue was obtained with consent from patients undergoing resection, cut into small pieces (1-2 mm in diameter), and then digested with Collagenase A (Roche Applied Science, Indianapolis, Ind.) at room temperature for 2 hours according to manufacture's protocol. Single cells from the digestion were spun down and the cell pellets were washed twice using RPMI 1640 supplemented with 10% fetal bovine serum, penicillin (100 IU/ml) and streptomycin (100 μg/ml). Then, the cells were resuspended in the same medium and cultured in 6-well plates at 37° C. in a humid incubator with 5% CO2 until they were ready for further treatments.
# as §1
# Next, flow cytometry was used to examine apoptosis after the treatment of small molecule compound FN1-5 at different doses (10 μM, 30 μM and 50 μM) for 3 days in primary cultured human mesothelioma cells freshly made from tissue samples.
# [2] = test system: NSCLC cell lines H460, H838, H1975, H1650, and H1703; experiment: Cell survival assay (crystal violet); format: cell-based, human; details: for cell killing: data not shown
# Protocol: (§2) Typically, the small molecule compounds of the present invention were dissolved in DMSO at a concentration of 30 mM. The small molecule compounds were then tested under cell culture conditions at different concentrations ranging from 0, 10, 30, 50, to 100 uM. To determine cell survival after treatment, the cells were incubated with the small molecule compounds in 6-well plates for about 3 days. After removal of the cell culture medium, 1-ml of 0.5% crystal violet solution (prepared in 20% ethanol and 20% methanol) was added to stain the cells for 5 min. Then the crystal violet solution was rinsed clean with tap water. Cell survival was estimated based on the density of crystal stained plates.
# [3] = test system: colon cancer cell line HT29; experiment: Cell survival assay (crystal violet); format: cell-based, human; details: FN1-8 even at higher doses (50 μM), data not shown
# Protocol: as §2
# [4] = test system: human ovarian cancer cell line AZ23247; experiment: Cell survival assay (crystal violet); format: cell-based; details: AZ23247, 30 μM and 50 μM
# Protocol: as §2
# The cell-based cytotoxicity assay described herein was used to determine the effect of small molecule compounds FN1-5 and FN1-8 in the human ovarian cancer cell line AZ23247. Viability of AZ23247 cells was analyzed after treatment with 10, 30 and 50 μM FN1-5 or FN1-8.
# [5] = test system: GLI1-induced transcription in melanoma cell lines Malme-3M, A375, SK-Mel-2, SK-Mel-5; experiment: 6xGLI BS-luciferase reporter assay; format: cell-based, human; details: 20 μM, 16-20 hours
# Protocol: One day before transfection, cells (1×10^5) were plated in 12-well plates with growth medium without antibiotics. When cells reached 80-90% of confluence they were co-transfected using 0.5 μg of each promoter construct in pGL3Basic vector and 0.025 μg pRL-TK Vector (Promega; Madison, Wis.) containing Renilla Luciferase as an internal control for the transformation efficiency. Lipofectamine 2000™ (Invitrogen Life Technologies) was used to mediate transfection for about 6 hours. […] Briefly, cells were lysed in a lysis buffer and Firefly and Renilla Luciferase activities in cells of each well, were measured using Dual-Luciferase Assay System (Promega) and an illuminometer. The measured luciferase activities were normalized to pRL-TK Vector activity and were given relative to the basal activity of empty pGL3-Basic Vector, which was set to unity. The data shown represent mean values (±S.D.). All measurements were performed in triplicate and repeated in at least three independent experiments. The human Wnt-2 promoter-luciferase construct, the human SOCS3 promoter-Luciferase construct and the human Gremlin promoter-luciferase construct were cloned and characterized in the laboratory of Dr. Jablons at the University of California, San Francisco (San Francisco, Calif.; He et al., Biochem Biophy Res Comm, 2003; and unpublished data). […]
# SW480 (colon cancer) = experiment: Apoptosis analysis (Annexin V FITC, flow cytometry); format: cell-based, human; details: 3 days
# Protocol: as §1
# Flow cytometry was used to examine apoptosis in colon cancer cells after treatment of cells with small molecule compounds of the invention.
# H1299 (NSCLC) = experiment: as above; format: cell-based, human; details: 3 days
# Protocol: as §1
# Flow cytometry was also used to examine apoptosis in several NSCLC cell lines after treatment with small molecule compounds of the invention.
Structure (SMILES),"% of apoptotic cells (CaCO2 (colon cancer); CaCO2, 30 μM) [%]","% of apoptotic cells (CaCO2 (colon cancer); CaCO2, 50 μM) [%]","% of apoptotic cells (H460 (NSCLC); H460, 30 μM) [%]","% of apoptotic cells (H460 (NSCLC); H460, 50 μM) [%]","% of apoptotic cells (H838 (NSCLC); H838, 10 μM) [%]","% of apoptotic cells (H838 (NSCLC); H838, 30 μM) [%]","% of apoptotic cells (H838 (NSCLC); H838, 50 μM) [%]",% of apoptotic cells ([1]; 10 μM) [%],% of apoptotic cells ([1]; 30 μM) [%],% of apoptotic cells ([1]; 50 μM) [%],cell killing [2],cell killing potency compared with FN1-5 ([2]; same concentrations),cell killing [3],cell killing [4],6xGLI BS-luciferase activity (GLI1-induced) [5],"% of apoptotic cells (SW480 (colon cancer); SW480, 10 μM) [%]","% of apoptotic cells (SW480 (colon cancer); SW480, 100 μM) [%]","% of apoptotic cells (CaCO2 (colon cancer); CaCO2, 10 μM) [%]","% of apoptotic cells (H1299 (NSCLC); H1299, 10 μM) [%]","% of apoptotic cells (H1299 (NSCLC); H1299, 100 μM) [%]"
"O=C(NCCc1ccc(O)cc1)C1C(c2ccccc2)=NN(c2ccccc2)C1c1ccccc1 (centres unmarked) [FN1-8, N-(2-(4-Hydroxyphenyl)ethyl)-1,3,5-triphenyl-4,5-dihydro-pyrazole-4-carboxyamide]",19.9,39.4,12.1,75.2,10.6,18.3,82.3,13.2,14.7,33.6,dramatic cell killing,more potent than FN1-5,no cell killing,dramatic cell killing,significantly reduced level of luciferase activity; also recorded: down-regulates GLI1-induced transcription activity,–,–,–,–,–
"O=C(NCCCCCO)C1C(c2ccccc2)=NN(c2ccccc2)C1c1ccccc1 (centres unmarked) [FN1-5, N-(5-Hydroxypentyl)-1,3,5-triphenyl-4,5-dihydro-pyrazole-4-carboxyamide]",19.8,30.3,11.9,15.7,–,14.2,20.0,12.3,15.8,18.3,dramatic cell killing,–,dramatic cell killing,dramatic cell killing,–,10.8,58.6,8.2,6.7,55.9
